The values that follow come from PMC4979471 (Cell Death Discovery, 2015).

Entries after “also recorded” stand apart in the source; their conditions may differ. Like-named read-outs stand apart in the source and are kept apart here.

The target in one data set is T1, recombinant human IDO (Homo sapiens, UniProt P14902).
T1 construct: purchased R&D Systems (Minneapolis, MN, USA)
The data set can be described thus: IDO enzymatic assay. It is filed as biochemical. The conditions noted are these: in vitro enzymatic assay.

Data set [1] has as its system human monocytic U937 cells. The data set can be described thus: TNF+zVAD-induced necroptosis, CellTiter-Glo. It is filed as cell-based. The conditions noted are these: U-937, U937, overnight, read-out: IC50 blocking necroptosis. The method, then:
(§1) Mouse fibrosarcoma L929 cells (ATCC# CCL-1) and human monocytic U937 cells (ATCC# CRL-1593.2) were cultured in RPMI media supplemented with 10% heat-inactivated FBS, 100 U/ml penicillin and […] streptomycin. BMDM were prepared from C57BL/6 mice by differentiation with 10 ng/ml M-CSF (R&D Systems) for 7 days and cultured in DMEM medium supplemented with 10% heat-inactivated FBS, 100 U/ml penicillin, 100 μg/ml streptomycin and 0.25 μg/ml amphotericin. Primary human neutrophils were isolated from human blood following the standard method comprised of sequential sedimentation in dextran, density centrifugation in Ficoll–Hypaque and lysis of contaminating red blood cells.
(§2) […] To evaluate the effect of RIP1 inhibitors, cells were pretreated with compound (dose–response) for 30 min. Induced cell death was evaluated 19–21 h later by measuring cellular ATP levels using CellTiter-Glo Luminescent Cell Viability assay (Promega, Fitchburg, WI, USA). To induce necroptosis in neutrophils, freshly isolated human neutrophils were stimulated with TNF (10 ng/ml), QVD-Oph (50 μM) and SMAC mimetic (100 nM). Induced cell death was evaluated as above.
(ATP-based viability assays read luminescence as a measure of living cells.)

Data set [2] concerns mouse fibrosarcoma L929 cells. The data set can be described thus: TNF+zVAD-induced necroptosis, CellTiter-Glo. In kind it is cell-based. The settings on record: overnight, read-out: IC50 blocking necroptosis. On the procedure: as §1, §2
Data set [3] deals with primary mouse bone marrow-derived macrophages (BMDMs). The data set can be described thus: TNF+zVAD-induced necroptosis, CellTiter-Glo. In kind it is cell-based. The settings on record: BMDM, read-out: IC50 blocking necroptosis. On the procedure:
as §1
(§3) Necroptotic cell death was induced in BMDM, L929 and U937 cells with TNF in the presence of caspase inhibitor zVAD-FMK or QVD-Oph (BMDM: 50 ng/ml TNF+50 μM zVAD; L929: 100 ng/ml TNF+50 μM QVD; U937: 100 ng/ml TNF+25 μM QVD). To evaluate the effect of RIP1 inhibitors, cells were pretreated with compound (dose–response) for 30 min. Induced cell death was evaluated 19–21 h later by measuring cellular ATP levels using CellTiter-Glo Luminescent Cell Viability assay (Promega, Fitchburg, WI, USA). To induce necroptosis in neutrophils, freshly isolated human neutrophils were stimulated with TNF (10 ng/ml), QVD-Oph (50 μM) and SMAC mimetic (100 nM). Induced cell death was evaluated as above.

In data set [4] the test system is primary human neutrophils. The data set can be described thus: TNF, zVAD and SMAC mimetic-induced necroptosis, CellTiter-Glo. The settings on record: Neutrophil, read-out: IC50 blocking necroptosis. In kind it is cell-based. On the procedure: as §1
Necroptotic cell death was induced in BMDM, L929 and U937 cells with TNF in the presence of caspase inhibitor zVAD-FMK or QVD-Oph (BMDM: 50 ng/ml TNF+50 μM zVAD; L929: 100 ng/ml TNF+50 μM QVD; U937: 100 ng/ml TNF+25 μM QVD). To evaluate the effect of RIP1 inhibitors, cells were pretreated with compound (dose–response) for 30 min. Induced cell death was evaluated 19–21 h later by measuring cellular ATP levels using CellTiter-Glo Luminescent Cell Viability assay (Promega, Fitchburg, WI, USA). […] Induced cell death was evaluated as above.

The subject of data set [5] is BMDM. The data set can be described thus: TNF+cycloheximide-stimulated apoptosis (cell viability, Caspase 3/7). The settings on record: 100 nM. In kind it is cell-based, mouse. On the procedure:
Caspase 3/7 activity was measured at 6 h using the Caspase-Glo 3/7 assay (Promega).

Data set [6] relates to BMDM. The data set can be described thus: TNF-induced NFκB activation (IκB phosphorylation and degradation, Western blot). In kind it is cell-based, mouse. The conditions noted are these: 100 nM. An excerpt: Lysates prepared in 1× Cell Lysis Buffer (Cell Signaling, Danvers, MA, USA) containing protease and phosphatase inhibitors were separated on 4–12% SDS-PAGE and blotted onto nitrocellulose membrane (Invitrogen, Waltham, MA, USA). Blots were probed for IκB (9242, Cell Signaling), phospho-IκB (2859, Cell Signaling), and tubulin as a loading control.
(Immunoblotting shows a protein as a band on a membrane.)

In another data set the target is T2, GRK6 (Homo sapiens, UniProt P43250).
T2 construct: purchased Reaction Biology Corp
The data set can be described thus: Kinase selectivity, P33-radiolabeled assay. In kind it is biochemical. The conditions noted are these: 10 μM ATP. The method, then: (§4) The compound was tested at a single dose in duplicate at 10 μM. Reactions were carried out at 10 μM ATP. Data are reported as % enzyme activity (relative to DMSO controls). The full data set is shown in the Supplementary Table I.

The next data set deals with T3, P38g (Homo sapiens, UniProt P53778).
T3 construct: purchased Reaction Biology Corp
T3 sequence (P53778 1-367): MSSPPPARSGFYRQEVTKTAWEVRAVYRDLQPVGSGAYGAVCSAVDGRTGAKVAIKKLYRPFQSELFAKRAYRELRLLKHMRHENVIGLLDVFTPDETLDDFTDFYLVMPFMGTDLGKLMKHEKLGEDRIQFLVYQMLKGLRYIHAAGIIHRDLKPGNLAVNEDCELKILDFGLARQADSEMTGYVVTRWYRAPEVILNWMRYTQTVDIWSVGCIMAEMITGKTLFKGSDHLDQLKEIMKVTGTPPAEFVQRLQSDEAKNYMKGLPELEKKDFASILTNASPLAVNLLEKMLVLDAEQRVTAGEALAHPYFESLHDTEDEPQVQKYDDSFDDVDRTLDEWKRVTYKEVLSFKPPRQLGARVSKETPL
The data set can be described thus: Kinase selectivity, P33-radiolabeled assay. It is filed as biochemical. The settings on record: 10 μM ATP. The method, then:
as §4

Another data set concerns 339 kinases. On the procedure: as §4
Data set [7] in a line: Pharmacokinetic profile after i.p. administration. The settings on record: i.p., mice. In kind it is in vivo, C57BL/6 mice. The method, then:
Briefly, pharmacokinetic studies were conducted using n=3 animals per group for each compound. […] Blood samples were obtained at various time points following intraperitoneal injection and diluted 1 : 1 with water prior to storage at −80 °C.
Prior to bioanalysis, samples were thawed and each analyte was isolated using a method based on protein precipitation. The resulting supernatant was injected into an LC/MS/MS system optimized for detection of the compound of interest. Data were reported as quantitative drug concentrations as determined by standard calibration curve analysis. Using these optimized conditions, the typical lower limit of quantitation achieved was 1.00 ng/ml for both compounds.

The subject of another data set is C57BL/6 mice. The data set can be described thus: TNF+zVAD-induced shock model (temperature loss). It is filed as in vivo, mouse. The conditions noted are these: 15 min before TNF+zVAD. The method, then:
Temperature was monitored over the course of 3 h by rectal probe.

The next data set has as its system human and murine cells. The data set can be described thus: RIP1-dependent cell death, summary statements. It is filed as cell-based. The conditions noted are these: read-out: IC50 inhibiting RIP1-dependent cell death. The method, then:
as §3

Setting [8] is: read-out: % Enzyme Activity (relative to DMSO controls) AVG.
Setting [9] is: read-out: % Enzyme Activity (relative to DMSO controls) Data 1.
The mark [10] stands for this setting: read-out: % Enzyme Activity (relative to DMSO controls) Data 2.

T2 sequence (P43250 whole entry): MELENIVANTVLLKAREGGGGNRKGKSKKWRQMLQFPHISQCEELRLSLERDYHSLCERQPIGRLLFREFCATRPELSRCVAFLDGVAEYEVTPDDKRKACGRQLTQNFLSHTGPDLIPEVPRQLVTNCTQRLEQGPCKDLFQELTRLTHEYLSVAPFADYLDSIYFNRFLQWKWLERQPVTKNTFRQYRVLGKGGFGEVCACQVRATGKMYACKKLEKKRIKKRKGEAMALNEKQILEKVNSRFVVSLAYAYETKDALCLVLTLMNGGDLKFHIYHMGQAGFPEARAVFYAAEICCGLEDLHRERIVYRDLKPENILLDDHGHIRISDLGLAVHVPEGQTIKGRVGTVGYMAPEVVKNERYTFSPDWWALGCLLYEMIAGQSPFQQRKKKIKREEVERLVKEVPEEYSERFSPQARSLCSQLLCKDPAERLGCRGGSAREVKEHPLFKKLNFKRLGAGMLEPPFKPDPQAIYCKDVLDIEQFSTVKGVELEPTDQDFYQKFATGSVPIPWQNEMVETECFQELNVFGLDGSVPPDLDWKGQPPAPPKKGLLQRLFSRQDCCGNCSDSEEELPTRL
T1 sequence (P14902 whole entry): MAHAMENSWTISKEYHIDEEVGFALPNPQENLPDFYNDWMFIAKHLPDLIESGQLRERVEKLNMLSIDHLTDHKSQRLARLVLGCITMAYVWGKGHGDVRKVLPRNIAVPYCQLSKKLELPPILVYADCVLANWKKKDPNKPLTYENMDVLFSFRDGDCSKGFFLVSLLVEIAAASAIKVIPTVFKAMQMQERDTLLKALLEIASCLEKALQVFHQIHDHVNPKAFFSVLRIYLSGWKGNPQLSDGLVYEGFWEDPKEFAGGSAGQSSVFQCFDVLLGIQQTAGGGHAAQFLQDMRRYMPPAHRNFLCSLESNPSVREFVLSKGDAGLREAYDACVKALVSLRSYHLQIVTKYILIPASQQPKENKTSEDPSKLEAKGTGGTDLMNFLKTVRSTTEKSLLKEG
Description for recombinant human IDO: IDO activity was determined as described by Takahashi et al.[25] using recombinant human IDO purchased from R&D Systems (Minneapolis, MN, USA). The yellow pigment derived from kynurenine was measured at 490 nm using the Spectramax microplate reader (Molecular Devices).

As to `CC(C)(C)C(=O)N1N=CC[C@H]1c1ccccc1` [GSK′963], at recombinant human IDO, the “effect on IDO activity” value was “lacks measurable activity; also recorded: no effect; also recorded: inactive”. Moreover, the IC50 in [1] is 4 nM; in [2] it was 1 nM; in data set [3] it was 3 nM; in [4], 0.9 nM; in the data set with human and murine cells, 1 to 4 nM. Moreover, in the data set with BMDM [5], the “effect on TNF+CHX-stimulated apoptosis” value is “no measurable effects; also recorded: no effect”. Also, the “effect on TNF-induced NFκB activation” value in the data set on BMDM [6] is “no measurable effects; also recorded: no effect”. Moreover, the remaining activity at 10 µM on GRK6 (setting [8]) is 104%; at GRK6 (setting [9]), 104%; on GRK6 (setting [10]), 103%; at P38g (setting [8]), 101%; at P38g (setting [9]), 103%; at P38g (setting [10]) it was 98.7%. The “activity against 339 human kinases” value in the data set with 339 kinases (10μM, Reaction Biology Corporation) is reported as “does not block the activity of any”. In addition, the “inhibition against all other kinases tested” value in the data set on 339 kinases (10 μM, panel of 339 kinases) is less than 50%. In addition, the apparent half-life result in data set [7] is reported as “greater than that for Nec-1”. Further, the “protection from TNF+zVAD-induced temperature loss” value with C57BL/6 mice (0.2 mg/kg i.p.) is “significant response”; in the data set on C57BL/6 mice (2 mg/kg i.p.) it was “completely inhibit temperature loss; also recorded: complete protection”.

What is called IC50 is the concentration that inhibits the measured activity by half.
